In US20160297761A1, “NOVEL INHIBITORS OF GLUTAMINASE” (RHIZEN PHARMACEUTICALS SA, priority 2014, published 2016):
Like-named read-outs stand apart in the source and are kept apart here.

What was measured:
[1] = biological target: T1, L-glutaminase present in mice brain homogenate (Glutaminase(Brain)) (Mus musculus, UniProt D3Z7P3); assay: Glutaminase enzyme activity using glutaminase enzyme from mice brain/kidney homogenate (Nessler's reagent, ammonia); format: biochemical; details: for inhibition at 0.1 µM: read-out: Glutaminase(Brain) activity % inhibition 0.1 μM; for inhibition at 1 µM: read-out: Glutaminase(Brain) activity % inhibition @1 μM
T1 sequence (D3Z7P3 55-674): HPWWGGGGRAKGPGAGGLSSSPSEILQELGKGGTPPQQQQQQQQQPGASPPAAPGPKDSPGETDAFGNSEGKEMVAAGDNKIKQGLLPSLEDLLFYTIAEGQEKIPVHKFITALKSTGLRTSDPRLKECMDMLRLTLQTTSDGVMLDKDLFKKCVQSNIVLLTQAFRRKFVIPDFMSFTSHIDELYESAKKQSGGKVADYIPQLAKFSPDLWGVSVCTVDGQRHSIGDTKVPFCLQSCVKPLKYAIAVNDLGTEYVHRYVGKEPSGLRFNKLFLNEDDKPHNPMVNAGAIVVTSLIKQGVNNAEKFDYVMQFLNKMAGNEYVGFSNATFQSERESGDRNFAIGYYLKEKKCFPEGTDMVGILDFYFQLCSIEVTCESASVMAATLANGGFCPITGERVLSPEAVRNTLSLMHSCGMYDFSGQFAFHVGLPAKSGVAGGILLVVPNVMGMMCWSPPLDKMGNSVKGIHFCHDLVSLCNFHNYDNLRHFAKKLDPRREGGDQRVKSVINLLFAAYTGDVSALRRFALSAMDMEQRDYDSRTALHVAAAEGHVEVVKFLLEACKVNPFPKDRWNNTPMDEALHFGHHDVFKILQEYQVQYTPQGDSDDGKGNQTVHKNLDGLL
Procedure: Assay 3: Determination of Glutaminase Enzyme Activity Using Glutaminase
Enzyme from Mice Brain/Kidney
Step 1: Preparation of Tissue Homogenates: Male Balb/c mice were administered 0.28 M ammonium chloride in drinking water for 7 days. The animals were sacrificed and brain/kidney organs collected on dry ice. […] The tissue was homogenized and supernatants were stored at −80° C. until the enzyme assay was performed.
Aim: Compounds were assessed for their ability to inhibit the enzymatic activity of L-glutaminase present in mice brain/kidney homogenate.
Protocol: The assay was performed using a colorimetric method using Nessler's Reagent by quantifying the amount of ammonia formed as a by product during the enzymatic conversion of L-glutamine to glutamate. In the routine assay, 16 μl of tissue homogenate is added to 33 μl of Tris-Hcl phosphate buffer (pH 8) along with 1 μl of DMSO/test compound containing the desired final concentration and vortexed briefly. 50 μl of 20 mM L-glutamine Tris buffer is added to start the reaction and incubated for 15 minutes at 37° C. The ammonia formed is detected by adding 20 μl of reaction mixture to cold water in a 96 well plate followed by 20 μl of Nessler's reagent. The colour developed is measured at 450 nm. Data Analysis: Activity of the test compound is reported as % inhibition and the data is analyzed using Graphpad Prism (Graphpad software; San Diego Calif.) for IC50 determination.

SMILES	inhibition at 0.1 µM ([1]; 0.1 μM, mice brain homogenate) [%]	inhibition at 1 µM ([1]; mice brain homogenate) [%]	melting point [°C]	inhibition at 0.1 µM [1] [%]
O=C(Cc1cccc(OC(F)(F)F)c1)Nc1ccc(CCCCc2nnc(NC(=O)Cc3cccnc3)s2)cn1 [Example-10, 2-(Pyridin-3-yl)-N-(5-(4-(6-(2-(3-(trifluoromethoxy)phenyl)acetamido)pyridin-3-yl)butyl)-1,3,4-thiadiazol-2-yl)acetamide]	75 to 100	75 to 100	176 to 178	–
Cc1ccc(F)c(C(=O)Nc2nnc(CCCCc3ccc(NC(=O)Cc4cccc(OC(F)(F)F)c4)nc3)s2)n1 [Example-37, 3-Fluoro-6-methyl-N-(5-(4-(6-(2-(3-(trifluoromethoxy)phenyl)acetamido)pyridin-3-yl)butyl)-1,3,4-thiadiazol-2-yl)picolinamide]	< 25	< 25	130 to 133	–
O=C(Cc1cccc(OC(F)(F)F)c1)Nc1ccc(CCCCc2ccc(NC(=O)Cc3cccc(OC(F)(F)F)c3)nc2)cn1 [Example-40, N,N′-(5,5′-(Butane-1,4-diyl)bis(pyridine-5,2-diyl))bis(2-(3-(trifluoromethoxy)phenyl)acetamide)]	< 25	< 25	153 to 155	–
O=C(Cc1ccccn1)Nc1nnc(CCCCc2ccc(NC(=O)Cc3cccc(OC(F)(F)F)c3)c(F)c2)s1 [Example-41, N-(5-(4-(3-Fluoro-4-(2-(3-(trifluoromethoxy)phenyl)acetamido)phenyl)butyl)-1,3,4-thiadiazol-2-yl)-2-(pyridin-2-yl)acetamide]	< 25	< 25	164 to 168	–
O=C(Cc1cccnc1)Nc1nnc(CCCCc2ccc(NC(=O)Cc3cccc(OC(F)(F)F)c3)c(F)c2)s1 [Example-42, N-(5-(4-(3-Fluoro-4-(2-(3-(trifluoromethoxy)phenyl)acetamido)phenyl)butyl)-1,3,4-thiadiazol-2-yl)-2-(pyridin-3-yl)acetamide]	< 25	< 25	176 to 180	–
O=C(Cc1cccnc1)Nc1nnc(C2CCC(c3nnc(NC(=O)Cc4cccnc4)s3)CC2)s1 (centres unmarked) [Example-102, N,N′-(5,5′-(cyclohexane-1,4-diyl)bis(1,3,4-thiadiazole-5,2-diyl))bis(2-(pyridin-3-yl)acetamide)]	–	–	180 to 182	< 25
O=C(Cc1cccnc1)Nc1nnc(CC2CCC(Cc3nnc(NC(=O)Cc4cccnc4)s3)CC2)s1 (centres unmarked) [Example-103, N,N′-(5,5′-(cyclohexane-1,4-diylbis(methylene))bis(1,3,4-thiadiazole-5,2-diyl))bis(2-(pyridin-3-yl)acetamide)]	25 to 50	25 to 50	268 to 270	–
O=C(Cc1cccc(OC(F)(F)F)c1)Nc1nnc(CC2CCC(Cc3nnc(NC(=O)Cc4cccc(OC(F)(F)F)c4)s3)CC2)s1 (centres unmarked) [Example-104, N,N′-(5,5′-(cyclohexane-1,4-diylbis(methylene))bis(1,3,4-thiadiazole-5,2-diyl))bis(2-(3-(trifluoromethoxy)phenyl)acetamide)]	< 25	< 25	240 to 244	–
O=C(Cc1cccc(OC(F)(F)F)c1)Nc1nnc(CC2CCC(Cc3nnc(NC(=O)Cc4ccccn4)s3)CC2)s1 (centres unmarked) [Example-105, 2-(Pyridin-2-yl)-N-(5-((4-((5-(2-(3-(trifluoromethoxy)phenyl)acetamido)-1,3,4-thiadiazol-2-yl)methyl)cyclohexyl)methyl)-1,3,4-thiadiazol-2-yl)acetamide]	< 25	< 25	278 to 280	–
